This note sets out measurements from DBAASP.

Each structure is given as a SMILES string. ≈ marks a conversion by molar mass, not a printed value.

Holding throughout (test): ≥ marks a high value that may be exact or a test limit, other limits are often not marked, values filed in µg/mL are converted to µM
The subject of assay [1] is Candida albicans ATCC 2048.
For assay [2], the system named is Candida glabrata ATCC 90525.
The test system of assay [3] is Candida krusei ATCC 6258.
In assay [4] the test system is Candida parapsilosis ATCC 20224.
The subject of assay [5] is Candida tropicalis ATCC 20240.
Assay [6] has as its system Staphylococcus aureus ATCC 43300.
The test system of assay [7] is Vibrio cholerae CUN 09.
In assay [8] the test system is Candida albicans NCTC 1467.
Assay [9] deals with Enterococcus faecalis NCTC 12697.
Assay [10] concerns Escherichia coli NCTC 10418.
Assay [11] concerns Pseudomonas aeruginosa ATCC 27853.
For assay [12], the system named is Staphylococcus aureus ATCC 12493.
Assay [13] relates to Staphylococcus aureus NCTC 10788.
Assay [14] concerns Lactobacillus delbrueckii subsp. bulgaricus CIDCA 331.
The subject of assay [15] is Lactobacillus delbrueckii subsp. lactis CIDCA 133.
For assay [16], the system named is Acinetobacter baumannii ATCC BAA-1605.
In assay [17] the test system is Escherichia coli ATCC 25922.
Assay [18] relates to Escherichia coli ATCC 43827.
The subject of assay [19] is Listeria monocytogenes EGD.
Assay [20] concerns Pseudomonas aeruginosa ATCC 9027.
The subject of assay [21] is Staphylococcus aureus ATCC 25923.
Assay [22] deals with Staphylococcus aureus ATCC 33591.
Assay [23] concerns Candida albicans ATCC 90029.
Assay [24] has as its system Candida albicans.
The test system of assay [25] is Escherichia coli.
The subject of assay [26] is Pseudomonas aeruginosa.
In assay [27] the test system is Staphylococcus aureus ATCC 29213.
Assay [28] relates to Staphylococcus aureus.
Assay [29] deals with Listeria monocytogenes ATCC 19114.
In assay [30] the test system is Listeria monocytogenes ATCC 19115.
For assay [31], the system named is Listeria monocytogenes ATCC 7644.
Assay [32] concerns Listeria monocytogenes NCTC 18890.
Assay [33] relates to Listeria monocytogenes.

Regarding `CC[C@H](C)[C@H](NC(=O)[C@H](CO)NC(=O)[C@H](CC(C)C)NC(=O)[C@@H](NC(=O)[C@H](CCCN=C(N)N)NC(=O)[C@@H](N)CCC(=O)O)[C@@H](C)CC)C(=O)N[C@@H](CC(C)C)C(=O)N[C@@H](CCCN=C(N)N)C(=O)N[C@@H](Cc1cnc[nH]1)C(=O)N[C@@H](CCC(N)=O)C(=O)N[C@@H](CC(N)=O)C(=O)N[C@@H](CC(C)C)C(=O)N[C@@H](CC(C)C)C(=O)N[C@@H](CCCCN)C(=O)N[C@@H](CCC(=O)O)C(=O)O` [ERILSILRHQNLLKE], the MIC – broadly, the smallest concentration in the dilution series that meets the test's criterion for growth inhibition – in [1] was no less than 130 µM; in assay [2], no less than 110 µM; in assay [3] it was no less than 130 µM; in [4], no less than 130 µM; in assay [5] it was no less than 73 µM.
Regarding `CC(C)C[C@H](NC(=O)[C@H](CCCCN)NC(=O)CNC(=O)[C@H](CCCCN)NC(=O)[C@H](Cc1ccccc1)NC(=O)[C@H](CCCCN)NC(=O)[C@H](Cc1c[nH]c2ccccc12)NC(=O)[C@H](CCCN=C(N)N)NC(=O)[C@H](Cc1ccccc1)NC(=O)[C@H](CCCN=C(N)N)NC(=O)[C@H](CCCN=C(N)N)NC(=O)[C@H](Cc1ccc(O)cc1)NC(=O)[C@H](CCCCN)NC(=O)[C@H](CCCCN)NC(=O)[C@H](CS)NC(=O)CN)C(=O)N[C@@H](Cc1c[nH]c2ccccc12)C(=O)N[C@@H](CC(C)C)C(=O)N[C@@H](Cc1c[nH]c2ccccc12)C(=O)NCC(N)=O` [GCKKYRRFRWKFKGKLWLWG], the MIC in assay [6] came out at 6.05 µM (≈ 16 µg/mL); in [7] it was 12.1 µM (≈ 32 µg/mL).
Regarding `CC[C@H](C)[C@H](NC(=O)CN)C(=O)N[C@@H](CCSC)C(=O)N[C@@H](CC(=O)O)C(=O)N[C@H](C(=O)N[C@H](C(=O)N[C@@H](CCCCN)C(=O)N[C@@H](CC(N)=O)C(=O)N[C@@H](C)C(=O)N[C@@H](C)C(=O)N[C@@H](CCCCN)C(=O)N[C@@H](CC(N)=O)C(=O)N[C@@H](CC(C)C)C(=O)N[C@@H](C)C(=O)NCC(=O)N[C@@H](CCC(N)=O)C(=O)N[C@@H](CC(C)C)C(=O)N[C@@H](CC(C)C)C(=O)N[C@@H](CC(=O)O)C(=O)N[C@@H](CCCCN)C(=O)N[C@@H](CC(C)C)C(=O)N[C@@H](CCCCN)C(=O)N[C@H]1CSSC[C@@H](C(=O)O)NC(=O)[C@H](C)NC(=O)[C@H]([C@@H](C)O)NC(=O)[C@H]([C@@H](C)CC)NC(=O)[C@H](CCCCN)NC1=O)C(C)C)[C@@H](C)O` [GIMDTVKNAAKNLAGQLLDKLKCKITAC], the MIC in assay [8] was no less than 256 µM; in [9] it was no less than 128 µM; in assay [10], no less than 32 µM; in assay [11], greater than 512 µM; in assay [12] it was no less than 256 µM; in assay [13] it was no less than 32 µM.
`CC[C@H](C)[C@H](NC(=O)[C@H](CC(=O)O)NC(=O)[C@H](Cc1ccccc1)NC(=O)[C@H](CC(C)C)NC(=O)CN)C(=O)N[C@@H](CCCCN)C(=O)N[C@@H](CCCCN)C(=O)N[C@H](C(=O)N[C@@H](C)C(=O)N[C@@H](CO)C(=O)N[C@H](C(=O)N[C@H](C(=O)NCC(=O)NCC(=O)N[C@@H](CC(C)C)C(N)=O)[C@@H](C)CC)C(C)C)C(C)C` [GLFDIKKVASVIGGL]: the figures for the MIC in [14] and in assay [15] were 25 µM (≈ 37.9 µg/mL) and no less than 50 µM, respectively.
Turning to `CC[C@H](C)[C@H](NC(=O)[C@H](Cc1ccccc1)NC(=O)[C@H](CCCCN)NC(=O)[C@H](CC(N)=O)NC(=O)[C@H](CC(C)C)NC(=O)[C@H](CCC(N)=O)NC(=O)CN)C(=O)N[C@@H](CCCCN)C(=O)N[C@@H](CCCCN)C(=O)N[C@@H](C)C(=O)N[C@@H](CCC(N)=O)C(=O)N[C@@H](CCCN=C(N)N)C(=O)N[C@@H](CCCCN)C(=O)N[C@@H](Cc1ccccc1)C(=O)N[C@@H](Cc1cnc[nH]1)C(=O)N[C@@H](CCC(=O)O)C(=O)N[C@@H](CCCCN)C(=O)N[C@@H](Cc1ccccc1)C(=O)N[C@@H](C)C(=O)N[C@@H](CCCCN)C(N)=O` [GQLNKFIKKAQRKFHEKFAK], the MIC in assay [16] was no less than 105 µM; in assay [17] it was 128 µM (≈ 313 µg/mL); in assay [18] it was no less than 209 µM; in assay [19], no less than 128 µM; in [11] it was 128 µM (≈ 313 µg/mL); in assay [20] it was 209 µM (≈ 512 µg/mL). Besides, the MIC in assay [21] was 128 µM (≈ 313 µg/mL); in [22], no less than 209 µM.
`CC(C)C[C@H](NC(=O)[C@H](CO)NC(=O)[C@H](Cc1cnc[nH]1)NC(=O)[C@H](CO)NC(=O)[C@H](CC(C)C)NC(=O)[C@H](CC(C)C)NC(=O)[C@@H](N)CCCCN)C(=O)N[C@@H](CC(C)C)C(=O)N[C@H](C(=O)N[C@H](C(=O)N[C@@H](CC(C)C)C(=O)N[C@@H](C)C(=O)O)[C@@H](C)O)C(C)C` [KLLSHSLLVTLA]: the MIC in assay [23] was no less than 154 µM; in assay [24] it was greater than 154 µM; in [17], 4.83 µM (≈ 6.25 µg/mL); in assay [25], 9.66 µM (≈ 12.5 µg/mL); in [26], 4.83 µM (≈ 6.25 µg/mL); in assay [27], 4.83 µM (≈ 6.25 µg/mL). Besides, the MIC in assay [28] came to 4.83 µM (≈ 6.25 µg/mL).
On to `CSCC[C@H](N)C(=O)N[C@@H](CCCN=C(N)N)C(=O)NCC(=O)N[C@@H](CO)C(=O)N[C@@H](Cc1cnc[nH]1)C(=O)N[C@@H](Cc1cnc[nH]1)C(=O)N[C@@H](Cc1cnc[nH]1)C(=O)N[C@@H](Cc1cnc[nH]1)C(=O)N[C@@H](Cc1cnc[nH]1)C(=O)N[C@@H](Cc1cnc[nH]1)C(=O)NCC(=O)N[C@@H](CO)C(=O)N[C@@H](CO)C(=O)NCC(=O)N[C@@H](CCC(=O)O)C(=O)N[C@@H](CC(N)=O)C(=O)N[C@@H](CC(C)C)C(=O)N[C@@H](Cc1ccc(O)cc1)C(=O)N[C@@H](Cc1ccccc1)C(=O)N[C@@H](CCC(N)=O)C(=O)N[C@@H](CO)C(=O)N[C@@H](CC(C)C)C(=O)O` [MRGSHHHHHHGSSGENLYFQSL], for which the MIC in assay [29], in assay [30], in assay [31], in assay [32] and in assay [33] was no less than 1960 µM throughout.
